What all share (test): DTP human tumour cell line panel, 48 h
Assay [1] deals with MDA-MB-435.
The subject of assay [2] is HT29 colon.
Assay [3] deals with SF-268 CNS.
In assay [4] the test system is IGROV1 ovarian.
Assay [5] deals with HS 578T breast.
Assay [6] deals with BT-549 breast.
Assay [7] concerns SNB-19 CNS.
The subject of assay [8] is A498 renal.
Assay [9] deals with HL-60(TB) leukemia.
Assay [10] has as its system MDA-MB-231 breast.

The values that follow come from PubChem BioAssay (NCI).

Each structure is given as a SMILES string. Where “and” joins values, the source holds several entries; their conditions need not be identical. Equal entries are not always repeated.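 Assay format: 96-well plates, 48-hour exposure. GI50: concentration for 50% inhibition of growth. Definition used: TGI = concentration required for complete inhibition of growth.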

As to `O=C(Nc1ccc(Cl)cc1)c1ccc(NC2=C(Cl)C(=O)N(Cc3ccccc3)C2=O)cc1`, the GI50 in assay [1] is 12.7 µM; in assay [2] it was 20 µM; in [3], 17.8 µM; in [4] it was 0.98 µM; in assay [5] it was 18.4 µM; in assay [6], 15.3 µM. Further, the GI50 was 23.2 µM in assay [7], 17.7 µM in [8], 6.23 µM in assay [9] and 13.9 µM in assay [10]. Besides, the TGI is 33.1 µM in assay [1]; greater than 100 µM in assay [2]; 50.2 µM in assay [3]; 6.22 µM in [4]; 49.8 µM in assay [5]; 34.2 µM in assay [6]. For the same molecule, the TGI is 76.6 µM in assay [7], 47.8 µM in assay [8], greater than 100 µM in assay [9] and 38.1 µM in [10].

As for `CCOC(=O)C(Cc1c[nH]c2ccc(N(CCCl)CCCl)cc12)(NC(C)=O)C(=O)OCC`, the GI50 was 16.9 µM in assay [1]; 16.9 µM and 13.9 µM in assay [2]; 5.21 µM in assay [3]; 19.4 µM in assay [4]; 69.5 µM and 20.9 µM in assay [5]; 16.3 µM and 12.2 µM in assay [6]. In addition, the GI50 was 19.6 µM in [7]; 20.3 µM in assay [8]; 3.29 µM and 1.43 µM in assay [9]; 24.6 µM and 33.3 µM in [10]. The TGI in assay [1] was 33.1 µM; in assay [2], 77.4 µM; in assay [3], 46.5 µM; in assay [4] it was 102 µM; in assay [5], 68.3 µM; in assay [6], 39.3 µM and 50.2 µM. In addition, the TGI is 312 µM in assay [7]; 54.2 µM in assay [8]; 12.1 µM and 9.89 µM in assay [9]; 81.2 µM and 575 µM in [10].

As to `C#CC1(O)C(COP(=O)(O)OC2CC(n3cc(F)c(=O)[nH]c3=O)OC2CO)OC(n2ccc(N)nc2=O)C1O` (centres undefined), the GI50 was less than 0.0176 µM in [1]; less than 0.0139 µM in assay [2]; less than 0.01 µM in assay [3]; less than 0.0139 µM in [4]; 0.304 µM in assay [5]; less than 0.0157 µM in assay [6]. Further, the GI50 in [7] was less than 0.0205 µM; in assay [8], 0.0824 µM; in assay [9], less than 0.0181 µM; in assay [10] it was 0.0731 µM. The total growth inhibition concentration (TGI) was 0.545 µM in assay [1]; greater than 100 µM in [2]; 13.5 µM in assay [3]; greater than 35.9 µM in assay [4]; greater than 35.4 µM in assay [5]; 0.909 µM in [6]. Further, the values for the TGI in assay [7], in [8] and in assay [10] were greater than 100 µM, 1.87 µM and greater than 61.9 µM, respectively.
